Source: patent US11858941B2, “Heterocyclic and heteroaryl compounds for treating Huntington's disease” (PTC THERAPEUTICS, INC., priority 2018, dated 2024)

test system: Endogenous Huntingtin Protein; assay: Endogenous Huntingtin Protein Assay (Meso Scale Discovery ELISA-based electrochemiluminescence); format: cell-based; details: MSD plates coated with MW1 (expanded polyglutamine) or MAB2166 capture antibody; lysates
Procedure, shortened: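 MSD electrochemiluminescence sandwich ELISA: MW1 (expanded polyQ) or MAB2166 capture antibody at 1 μg/mL, samples incubated overnight at 4° C. Detection with rabbit monoclonal #5656S then SULFO-TAG anti-rabbit antibody, each 0.25 μg/mL for 1 h at room temperature.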

| SMILES | IC50 [nM] |
| --- | --- |
| CCn1ncc(-c2ccc(-c3cc4nnn(C5CC(C)(C)NC(C)(C)C5)c4nn3)c(O)c2)c1F [Cpd 122, 5-(1-ethyl-5-fluoro-1H-pyrazol-4-yl)-2-[3-(2,2,6,6-tetramethylpiperidin-4-yl)-3H-[1,2,3]triazolo[4,5-c]pyridazin-6-yl]phenol] | 1000 to 3000 |
| Oc1cc(-c2cn[nH]c2)ccc1-c1cc2[nH]cc(C3CC4COCC(C3)N4)c2nn1 (stereo not drawn) [Cpd 30, 2-[7-(3-oxa-9-azabicyclo[3.3.1]non-7-yl)-5H-pyrrolo[3,2-c]pyridazin-3-yl]-5-(1H-pyrazol-4-yl)phenol] | 500 to 1000 |
| CC1(C)CC(n2nnc3cc(-c4ccc(-n5ccnc5)cc4O)nnc32)CC(C)(C)N1 [Cpd 70, 5-(1H-imidazol-1-yl)-2-[3-(2,2,6,6-tetramethylpiperidin-4-yl)-3H-[1,2,3]triazolo[4,5-c]pyridazin-6-yl]phenol] | ≤ 100 |
| CC1(C)CC(n2nnc3cc(-c4ccc(-c5nccs5)cc4O)nnc32)CC(C)(C)N1 [Cpd 96, 2-[3-(2,2,6,6-tetramethylpiperidin-4-yl)-3H-[1,2,3]triazolo[4,5-c]pyridazin-6-yl]-5-(1,3-thiazol-2-yl)phenol] | ≤ 100 |
| CC1(C)CC(N2CCc3cc(-c4ccc(-c5cn[nH]c5)cc4O)nnc32)CC(C)(C)N1 [Cpd 23, 5-(1H-pyrazol-4-yl)-2-[7-(2,2,6,6-tetramethylpiperidin-4-yl)-6,7-dihydro-5H-pyrrolo[2,3-c]pyridazin-3-yl]phenol] | ≤ 100 |
| CC1(C)CC(n2nnc3cc(-c4cc(F)c(-c5ccc(O)cc5)cc4O)nnc32)CC(C)(C)N1 [Cpd 53, 6-fluoro-4-[3-(2,2,6,6-tetramethylpiperidin-4-yl)-3H-[1,2,3]triazolo[4,5-c]pyridazin-6-yl][1,1′-biphenyl]-3,4′-diol] | ≤ 100 |
| CC1(C)CC(n2nnc3cc(-c4ccc(-n5cncn5)cc4O)nnc32)CC(C)(C)N1 [Cpd 63, 2-[3-(2,2,6,6-tetramethylpiperidin-4-yl)-3H-[1,2,3]triazolo[4,5-c]pyridazin-6-yl]-5-(1H-1,2,4-triazol-1-yl)phenol] | ≤ 100 |
| Cn1ccc(-c2ccc(-c3cc4nnn(C5CC(C)(C)NC(C)(C)C5)c4nn3)c(O)c2)n1 [Cpd 51, 5-(1-methyl-1H-pyrazol-3-yl)-2-[3-(2,2,6,6-tetramethylpiperidin-4-yl)-3H-[1,2,3]triazolo[4,5-c]pyridazin-6-yl]phenol] | 100 to 500 |
| Cc1ncc(-c2ccc(-c3cc4nnn(C5CC(C)(C)NC(C)(C)C5)c4nn3)c(O)c2)o1 [Cpd 158, 5-(2-methyl-1,3-oxazol-5-yl)-2-[3-(2,2,6,6-tetramethylpiperidin-4-yl)-3H-[1,2,3]triazolo[4,5-c]pyridazin-6-yl]phenol] | ≤ 100 |
| CC1(C)CC(n2nnc3cc(-c4ccc(-c5ncco5)cc4O)nnc32)CC(C)(C)N1 [Cpd 111, 5-(1,3-oxazol-2-yl)-2-[3-(2,2,6,6-tetramethylpiperidin-4-yl)-3H-[1,2,3]triazolo[4,5-c]pyridazin-6-yl]phenol] | ≤ 100 |
| CC1(C)CC(n2nnc3cc(-c4ccc(-c5ccccn5)cc4O)nnc32)CC(C)(C)N1 [Cpd 61, 5-(pyridin-2-yl)-2-[3-(2,2,6,6-tetramethylpiperidin-4-yl)-3H-[1,2,3]triazolo[4,5-c]pyridazin-6-yl]phenol] | 1000 to 3000 |
| COc1cc(-c2ccc(-c3cc4nnn(C5CC(C)(C)NC(C)(C)C5)c4nn3)c(O)c2)ccn1 [Cpd 77, 5-(2-methoxypyridin-4-yl)-2-[3-(2,2,6,6-tetramethylpiperidin-4-yl)-3H-[1,2,3]triazolo[4,5-c]pyridazin-6-yl]phenol] | ≤ 100 |
| CC1(C)CC(n2nnc3cc(-c4ccc(-c5cn[nH]c5)c(F)c4O)nnc32)CC(C)(C)N1 [Cpd 54, 2-fluoro-3-(1H-pyrazol-4-yl)-6-[3-(2,2,6,6-tetramethylpiperidin-4-yl)-3H-[1,2,3]triazolo[4,5-c]pyridazin-6-yl]phenol] | ≤ 100 |
| CC1(C)CC(n2nnc3cc(-c4ccc(-c5c[nH]nc5Cl)cc4O)nnc32)CC(C)(C)N1 [Cpd 129, 5-(3-chloro-1H-pyrazol-4-yl)-2-[3-(2,2,6,6-tetramethylpiperidin-4-yl)-3H-[1,2,3]triazolo[4,5-c]pyridazin-6-yl]phenol] | ≤ 100 |
| Cc1ccn(-c2ccc(-c3cc4nnn(C5CC(C)(C)NC(C)(C)C5)c4nn3)c(O)c2)n1 [Cpd 157, 5-(3-methyl-1H-pyrazol-1-yl)-2-(3-(2,2,6,6-tetramethylpiperidin-4-yl)-3H-[1,2,3]triazolo[4,5-c]pyridazin-6-yl)phenol] | 100 to 500 |
| CC1(C)CC(n2nnc3cc(-c4cc(Cl)c(-c5cn[nH]c5)cc4O)nnc32)CC(C)(C)N1 [Cpd 83, 4-chloro-5-(1H-pyrazol-4-yl)-2-[3-(2,2,6,6-tetramethylpiperidin-4-yl)-3H-[1,2,3]triazolo[4,5-c]pyridazin-6-yl]phenol] | ≤ 100 |
| CC1(C)CC(n2nnc3cc(-c4ccc(-c5c[nH]nc5C(F)(F)F)cc4O)nnc32)CC(C)(C)N1 [Cpd 139, 2-[3-(2,2,6,6-tetramethylpiperidin-4-yl)-3H-[1,2,3]triazolo[4,5-c]pyridazin-6-yl]-5-[3-(trifluoromethyl)-1H-pyrazol-4-yl]phenol] | 100 to 500 |

| SMILES | IC50 [nM] |
| --- | --- |
| CC1(C)CC(n2nnc3cc(-c4ccc(-c5cn[nH]c5)cc4O)nnc32)CCN1 (stereo not drawn) [Cpd 56, 2-[3-(2,2-dimethylpiperidin-4-yl)-3H-[1,2,3]triazolo[4,5-c]pyridazin-6-yl]-5-(1H-pyrazol-4-yl)phenol] | 100 to 500 |
| CC1(C)CC(n2nnc3cc(-c4ccc(-c5ccc(O)nn5)cc4O)nnc32)CC(C)(C)N1 [Cpd 79, 6-{3-hydroxy-4-[3-(2,2,6,6-tetramethylpiperidin-4-yl)-3H-[1,2,3]triazolo[4,5-c]pyridazin-6-yl]phenyl}pyridazin-3-ol] | 500 to 1000 |
| CC1(C)C[C@@H](n2nnc3cc(-c4ccc(-c5cn[nH]c5)cc4O)nnc32)[C@H](F)C(C)(C)N1 [Cpd 168, 2-{3-[(3S,4R)-3-fluoro-2,2,6,6-tetramethylpiperidin-4-yl]-3H-[1,2,3]triazolo[4,5-c]pyridazin-6-yl}-5-(1H-pyrazol-4-yl)phenol] | ≤ 100 |
| CC1(C)CC(n2nnc3cc(-c4cc(O)c(-c5cn[nH]c5)cc4F)nnc32)CC(C)(C)N1 [Cpd 33, 4-fluoro-2-(1H-pyrazol-4-yl)-5-[3-(2,2,6,6-tetramethylpiperidin-4-yl)-3H-[1,2,3]triazolo[4,5-c]pyridazin-6-yl]phenol] | 500 to 1000 |
| CC1(C)CC(n2ncc3cc(-c4ccc(-c5cn[nH]c5)cc4O)nnc32)CC(C)(C)N1 [Cpd 22, 5-(1H-pyrazol-4-yl)-2-[1-(2,2,6,6-tetramethylpiperidin-4-yl)-1H-pyrazolo[3,4-c]pyridazin-5-yl]phenol] | ≤ 100 |
| CC1(C)CC(n2nnc3cc(-c4ccc(-c5ccncc5F)cc4O)nnc32)CC(C)(C)N1 [Cpd 101, 5-(3-fluoropyridin-4-yl)-2-[3-(2,2,6,6-tetramethylpiperidin-4-yl)-3H-[1,2,3]triazolo[4,5-c]pyridazin-6-yl]phenol] | 500 to 1000 |
| CC1(C)CC(n2nnc3cc(-c4cc5cccnc5cc4O)nnc32)CC(C)(C)N1 [Cpd 81, 6-[3-(2,2,6,6-tetramethylpiperidin-4-yl)-3H-[1,2,3]triazolo[4,5-c]pyridazin-6-yl]quinolin-7-ol] | 1000 to 3000 |
| Cn1ccc(-c2ccc(-c3cc4nnn([C@H]5CC(C)(C)NC(C)(C)[C@H]5F)c4nn3)c(O)c2)cc1=O [Cpd 171, 4-(4-{3-[(3S,4S)-3-fluoro-2,2,6,6-tetramethylpiperidin-4-yl]-3H-[1,2,3]triazolo[4,5-c]pyridazin-6-yl}-3-hydroxyphenyl)-1-methylpyridin-2(1H)-one] | 100 to 500 |
| Oc1cc(-c2cn[nH]c2)ccc1-c1cc2[nH]cc(N3CCNCC3)c2nn1 [Cpd 43, 2-[7-(piperazin-1-yl)-5H-pyrrolo[3,2-c]pyridazin-3-yl]-5-(1H-pyrazol-4-yl)phenol] | 500 to 1000 |
| CC1(C)CC(n2nnc3cc(-c4ccc(-c5nncs5)cc4O)nnc32)CC(C)(C)N1 [Cpd 116, 2-[3-(2,2,6,6-tetramethylpiperidin-4-yl)-3H-[1,2,3]triazolo[4,5-c]pyridazin-6-yl]-5-(1,3,4-thiadiazol-2-yl)phenol] | ≤ 100 |
| CC1(C)CC(n2cnc3cc(-c4ncc(-c5cn[nH]c5)cc4O)nnc32)CC(C)(C)N1 [Cpd 141, 5-(1H-pyrazol-4-yl)-2-[7-(2,2,6,6-tetramethylpiperidin-4-yl)-7H-imidazo[4,5-c]pyridazin-3-yl]pyridin-3-ol] | ≤ 100 |
| CC1(C)CC(n2nnc3cc(-c4ccc(-n5nccn5)cc4O)nnc32)CC(C)(C)N1 [Cpd 163, 2-[3-(2,2,6,6-tetramethylpiperidin-4-yl)-3H-[1,2,3]triazolo[4,5-c]pyridazin-6-yl]-5-(2H-1,2,3-triazol-2-yl)phenol] | ≤ 100 |
| COc1nc2cc(-c3ccc(-c4cn[nH]c4)cc3O)nnc2n1C1CC(C)(C)NC(C)(C)C1 [Cpd 40, 2-[6-methoxy-7-(2,2,6,6-tetramethylpiperidin-4-yl)-7H-imidazo[4,5-c]pyridazin-3-yl]-5-(1H-pyrazol-4-yl)phenol] | 3000 to 9000 |
| CC(C)(C)NC1CCC(n2nnc3cc(-c4ccc(-c5cn[nH]c5)cc4O)nnc32)C1 (stereo not drawn) [Cpd 175, 2-{3-[3-(tert-butylamino)cyclopentyl]-3H-[1,2,3]triazolo[4,5-c]pyridazin-6-yl}-5-(1H-pyrazol-4-yl)phenol] | 500 to 1000 |
| CC1(C)CC(n2nnc3cc(-c4ccc(-c5cnoc5)cc4O)nnc32)CC(C)(C)N1 [Cpd 120, 5-(1,2-oxazol-4-yl)-2-[3-(2,2,6,6-tetramethylpiperidin-4-yl)-3H-[1,2,3]triazolo[4,5-c]pyridazin-6-yl]phenol] | 100 to 500 |
| CC1(C)CC(n2nnc3cc(-c4ccc(-c5cnc6nn[nH]c6c5)cc4O)nnc32)CC(C)(C)N1 [Cpd 145, 2-[3-(2,2,6,6-tetramethylpiperidin-4-yl)-3H-[1,2,3]triazolo[4,5-c]pyridazin-6-yl]-5-(1H-[1,2,3]triazolo[4,5-b]pyridin-6-yl)phenol] | 1000 to 3000 |
